Reference: ChEMBL document CHEMBL4308870, “Discovery and SAR studies of novel 2-anilinopyrimidine-based selective inhibitors against triple-negative breast cancer cell line MDA-MB-468” (2019)

Assays:
Format in all cases: functional
MDA-MB-468 [1] = test: Cytotoxicity against EGFR over-expressing human MDA-MB-468 cells assessed as cell viability at 10 uM after 48 hrs by MTT assay relative to control; settings: MDA-MB-468, 48 h, read-out: Activity
MCF7 [2] = test: Cytotoxicity against human MCF7 cells assessed as cell viability at 10 uM after 48 hrs by MTT assay relative to control; settings: MCF7, 48 h, read-out: Activity
MCF7 [3] = test: cells; settings: Homo sapiens, MCF7, 48 h
Description: Growth inhibition of human MCF7 cells after 48 hrs by MTT assay

[4] = Selectivity index, ratio of GI50 for human MCF7 cells to GI50 for EGFR over-expressing human MDA-MB-468 cells
MDA-MB-468 [5] = test: cells; settings: Homo sapiens, MDA-MB-468, 48 h
Description: Growth inhibition of EGFR over-expressing human MDA-MB-468 cells after 48 hrs by MTT assay

GI50 (MCF7 [3]) [µM] | GI50 (MDA-MB-468 [5]) [µM] | Structure (SMILES) | viability at 10 µM (MDA-MB-468 [1]) [%] | viability at 10 µM (MCF7 [2]) [%] | RatioGI50 [4]
 |  | c1cc(N2CCCCC2)nc(Nc2ccc(OCCCN3CCSCC3)cc2)n1 | 71.8 | 72.9 | 
 |  | ClC1CCN(c2ccnc(Nc3ccc(OCCCN4CCOCC4)cc3)n2)CC1 | 61.6 | 93.3 | 
 |  | CCN(CC)CCCOc1ccc(Nc2nccc(N3CCCCC3)n2)cc1 | 62 | 95.4 | 
 |  | CN1CCN(c2ccnc(Nc3ccc(OCCCN4CCOCC4)cc3)n2)CC1 | 80.7 | 89.6 | 
 |  | CCN(CC)CCCOc1ccc(Nc2nccc(N3CCOCC3)n2)cc1 | 79.4 | 66.5 | 
27.3 | 7.6 | CCN(CC)c1ccnc(Nc2ccc(OCCCN3CCSCC3)cc2)n1 | 36 | 91.9 | 3.6
> 30 | 11.5 | ClC1CCN(c2ccnc(Nc3ccc(OCCCN4CCCCC4)cc3)n2)CC1 | 52.1 | 87.1 | >2.6
 |  | c1cc(N2CCSCC2)nc(Nc2ccc(OCCCN3CCOCC3)cc2)n1 | 73.4 | 86.1 | 
 |  | c1cc(N2CCOCC2)nc(Nc2ccc(OCCCN3CCCCC3)cc2)n1 | 86.8 | 95.7 | 
> 30 | 6.9 | CCN(CC)CCCOc1ccc(Nc2nccc(N3CCC(C)CC3)n2)cc1 | 16.9 | 93.2 | >4.3
> 30 | 18.3 | c1cc(N2CCCCC2)nc(Nc2ccc(OCCCN3CCOCC3)cc2)n1 | 55.2 | 61.8 | 
 |  | CCN(CC)CCCOc1ccc(Nc2nccc(N3CCN(C)CC3)n2)cc1 | 64.6 | 67 | 
 |  | CN1CCN(c2ccnc(Nc3ccc(OCCCN4CCSCC4)cc3)n2)CC1 | 56.5 | 79.8 | 
 |  | c1cc(N2CCCC2)nc(Nc2ccc(OCCCN3CCSCC3)cc2)n1 | 78.3 | 84.7 | 
 |  | c1cc(N2CCCC2)nc(Nc2ccc(OCCCN3CCCCC3)cc2)n1 | 58.1 | 66.1 | 
18.3 | 11.4 | CCN(CC)c1ccnc(Nc2ccc(OCCCN3CCCCC3)cc2)n1 | 53.1 | 69.7 | 1.6

GI50 (MCF7 [3]) [µM] | GI50 (MDA-MB-468 [5]) [µM] | Structure (SMILES) | viability at 10 µM (MDA-MB-468 [1]) [%] | viability at 10 µM (MCF7 [2]) [%] | RatioGI50 [4]
 |  | ClC1CCN(c2ccnc(Nc3ccc(OCCCN4CCSCC4)cc3)n2)CC1 | 62.7 | 87.7 | 
 |  | c1cc(N2CCSCC2)nc(Nc2ccc(OCCCN3CCCCC3)cc2)n1 | 78.1 | 60 | 
> 30 | 16.3 | CC1CCN(c2ccnc(Nc3ccc(OCCCN4CCOCC4)cc3)n2)CC1 | 51.3 | 71.8 | >1.8
 |  | CCN(CC)c1ccnc(Nc2ccc(OCCCN3CCOCC3)cc2)n1 | 69.7 | 94.9 | 
 |  | c1cc(N2CCSCC2)nc(Nc2ccc(OCCCN3CCSCC3)cc2)n1 | 65 | 77.8 | 
28.1 | 6.4 | CC1CCN(c2ccnc(Nc3ccc(OCCCN4CCCCC4)cc3)n2)CC1 | 21.3 | 73.7 | 4.4
 |  | c1cc(N2CCCC2)nc(Nc2ccc(OCCCN3CCOCC3)cc2)n1 | 77.1 | 89 | 
 |  | c1cc(N2CCOCC2)nc(Nc2ccc(OCCCN3CCOCC3)cc2)n1 | 84.5 | 83.2 | 
 |  | CC1CCN(c2ccnc(Nc3ccc(OCCCN4CCSCC4)cc3)n2)CC1 | 61.3 | 79.5 | 
 |  | CN1CCN(c2ccnc(Nc3ccc(OCCCN4CCCCC4)cc3)n2)CC1 | 71.7 | 76.9 | 
 |  | CCN(CC)CCCOc1ccc(Nc2nccc(N3CCSCC3)n2)cc1 | 88 | 86.4 | 
 |  | COc1cc2ncnc(Nc3ccc(F)c(Cl)c3)c2cc1OCCCN1CCOCC1 [GEFITINIB] | 60.3 | 70.3 | 
 |  | CCN(CC)CCCOc1ccc(Nc2nccc(N3CCCC3)n2)cc1 | 69.7 | 78.5 | 
 |  | c1cc(N2CCOCC2)nc(Nc2ccc(OCCCN3CCSCC3)cc2)n1 | 57.4 | 67.9 | 
> 30 | 9.2 | c1cc(N2CCCCC2)nc(Nc2ccc(OCCCN3CCCCC3)cc2)n1 | 45.1 | 86.7 | >3.3
